The values below come from patent US7407775B2, “Method for identifying Listeria monocytogenes and culture medium” (Biomerieux S.A., priority 2000, dated 2008).

Experiment in all cases: Experiment 3: detecting an esterase activity in liquid medium (API-type strips)
Type in all cases: cell-based
What all share (set-up): key: —: the symbol “-” corresponds to the absence of color or intensity; 0 corresponds to no activity; 0.1 corresponds to a trace of color; 0.5 corresponds to very pale coloration; 1 corresponds to clear but low-intensity coloration; 1.5 corresponds to a degree of coloration intermediate between scores 1 and 2; 2 corresponds to clear coloration of moderate intensity; 2.5 corresponds to a degree of coloration intermediate between scores 2 and 3; 3 corresponds to intense coloration; 3.5 corresponds to a degree of coloration intermediate between scores 3 and 4; 4 corresponds to very intense coloration
Details in all cases: 37° C.

Assay [1] has as its system Listeria grayi ATCC 19120. How it is done:
(§1) In Table 1 above, as in the following Tables, C represents the color of the colonies after incubation, I represents the intensity of the color, and the symbol “-” corresponds to the absence of color or intensity; finally, IT defines the incubation time. It should be noted that the intensity of the color is scored on an arbitrary scale but one which is consistent for all the biological specimens and media tested. This scale is valid for this experiment as well as all those that follow. It can be defined in the following way: • 0 corresponds to no activity, • 0.1 corresponds to a trace of color, • 0.5 corresponds to very pale coloration, • 1 corresponds to clear but low-intensity coloration, • 1.5 corresponds to a degree of coloration intermediate between scores 1 and 2, • 2 corresponds to clear coloration of moderate intensity, • 2.5 corresponds to a degree of coloration intermediate between scores 2 and 3, • 3 corresponds to intense coloration, • 3.5 corresponds to a degree of coloration intermediate between scores 3 and 4, • 4 corresponds to very intense coloration.
(§2) These substrates were lyophilized in the wells of API-type strips (Registered Trademark). Before use, the substrates contained in the wells were resuspended in an agar-free Columbia-type inoculation medium. These wells were then inoculated with a suspension (density=2 McFarland) of microorganisms taken from either the Applicant's own collection or the ATCC. The strips were incubated for 8 hours at 37° C. The colonies which grew were examined by eye after 4, 6 and 8 hours of incubation.
(§3) The intensity of the color of the colonies was recorded.

A further assay relates to Listeria innocua 166. Here is the method:
as §1, §2, §3

The test system of another assay is Listeria ivanovii 018. How it is done:
as §1, §2, §3

For assay [2], the system named is Listeria monocytogenes 092. Here is the method:
as §1, §2, §3

Assay [3] relates to Listeria monocytogenes ATCC 19115. Here is the method: as §1, §2, §3
The test system of the next assay is Listeria seeligeri 011. How it is done:
as §1, §2, §3

A further assay deals with Listeria welshimeri 023. Here is the method:
as §1, §2, §3

Take `CCCCCCCC(=O)Oc1c[nH]c2cc(Cl)c(Br)cc12` [Magenta-C8, 5-Bromo-6-chloro-3-indolyl octanoate]: the “I (intensity of the color)” value (in assay [1] (IT 4 h); in assay [1] (IT 6 h); in assay [1] (IT 8 h); in the assay on Listeria innocua 166 (IT 4 h); with Listeria innocua 166 (IT 6 h); in the assay on Listeria innocua 166 (IT 8 h)) was “—” each time. For the same compound, the “I (intensity of the color)” value is reported as “—” in the assay with Listeria ivanovii 018 (IT 4 h); “—” with Listeria ivanovii 018 (IT 6 h); “—” with Listeria ivanovii 018 (IT 8 h); “—” in assay [2] (IT 4 h); “—” in assay [2] (IT 6 h); 0.5 in assay [2] (IT 8 h). The “I (intensity of the color)” value in assay [3] (IT 4 h) was “—”; in assay [3] (IT 6 h), “—”; in assay [3] (IT 8 h) it was 0.5; with Listeria seeligeri 011 (IT 4 h), “—”; in the assay with Listeria seeligeri 011 (IT 6 h), “—”; in the assay with Listeria seeligeri 011 (IT 8 h) it was “—”. In addition, the “I (intensity of the color)” value in the assay on Listeria welshimeri 023 (IT 4 h), with Listeria welshimeri 023 (IT 6 h) and in the assay with Listeria welshimeri 023 (IT 8 h) was “—” throughout.

On to `CCCCCCCC(=O)Oc1c[nH]c2cc(Cl)ccc12` [Pink-C8, 6-Chloro-3-indolyl octanoate], for which the “I (intensity of the color)” value (in assay [1] (IT 4 h); in assay [1] (IT 6 h); in assay [1] (IT 8 h); in the assay with Listeria innocua 166 (IT 4 h); with Listeria innocua 166 (IT 6 h); with Listeria innocua 166 (IT 8 h)) was “—” in each case. Besides, the “I (intensity of the color)” value (in the assay with Listeria ivanovii 018 (IT 4 h); in the assay with Listeria ivanovii 018 (IT 6 h); with Listeria ivanovii 018 (IT 8 h); in assay [2] (IT 4 h); in assay [2] (IT 6 h); in assay [2] (IT 8 h)) was “—” in each case. Also, the “I (intensity of the color)” value (in assay [3] (IT 4 h); in assay [3] (IT 6 h); in assay [3] (IT 8 h); in the assay with Listeria seeligeri 011 (IT 4 h); with Listeria seeligeri 011 (IT 6 h); in the assay on Listeria seeligeri 011 (IT 8 h)) was “—” in each case. Further, the “I (intensity of the color)” value with Listeria welshimeri 023 (IT 4 h), with Listeria welshimeri 023 (IT 6 h) and in the assay on Listeria welshimeri 023 (IT 8 h) was “—” throughout.

Turning to `CCCCCCCC(=O)Oc1c[nH]c2ccc(Br)c(Cl)c12` [X-C8, 5-Bromo-4-chloro-3-indolyl octanoate], the “I (intensity of the color)” value (in assay [1] (IT 4 h); in assay [1] (IT 6 h); in assay [1] (IT 8 h); in the assay with Listeria innocua 166 (IT 4 h); in the assay with Listeria innocua 166 (IT 6 h); in the assay with Listeria innocua 166 (IT 8 h)) was “—” each time. Besides, the “I (intensity of the color)” value was “—” in the assay with Listeria ivanovii 018 (IT 4 h); “—” in the assay on Listeria ivanovii 018 (IT 6 h); “—” in the assay on Listeria ivanovii 018 (IT 8 h); “—” in assay [2] (IT 4 h); 1 in assay [2] (IT 6 h); 1.5 in assay [2] (IT 8 h). In addition, the “I (intensity of the color)” value in assay [3] (IT 4 h) is recorded as “—”; in assay [3] (IT 6 h) it was 1; in assay [3] (IT 8 h), 1.5; in the assay with Listeria seeligeri 011 (IT 4 h), “—”; in the assay on Listeria seeligeri 011 (IT 6 h), 0.5; in the assay with Listeria seeligeri 011 (IT 8 h), 0.5. For the same compound, the “I (intensity of the color)” value in the assay with Listeria welshimeri 023 (IT 4 h), with Listeria welshimeri 023 (IT 6 h) and in the assay on Listeria welshimeri 023 (IT 8 h) was “—” in each case.
